Measurements taken from US10640495B2, “Heterocycle derivatives having TrkA inhibitory activity” (Shionogi & Co., Ltd., priority 2015, dated 2020).
Where two headings read alike, the source gives them in different places.

Molecular target: human TrkA (Homo sapiens (Human), UniProt P04629)
Experiment: Human TrkA inhibition assay (Test Example 2)
Assay type: biochemical
Outline: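 Mobility-shift readout of phosphorylated versus unphosphorylated fluorescent peptide gave conversion ratio, normalized to DMSO and no-enzyme wells; IC50 by logistic fit of 10- or 15-point 3-fold dilutions. Conditions: 1 nmol/L enzyme, 15 min compound preincubation, then 500 μmol/L ATP plus 1.5 μmol/L peptide, 120 min, 37 °C.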

[1] = human TrkA 1 nmol/L, ATP 500 μmol/L, 120 min at 37° C., read-out: IC50 values (TrkA phosphorylation inhibition)
[2] = Table 153, human TrkA inhibition, read-out: IC50
[3] = Table 155, human TrkA inhibition, read-out: IC50
[4] = Table 157, human TrkA inhibition, read-out: IC50

human TrkA, sequence (P04629 440-796): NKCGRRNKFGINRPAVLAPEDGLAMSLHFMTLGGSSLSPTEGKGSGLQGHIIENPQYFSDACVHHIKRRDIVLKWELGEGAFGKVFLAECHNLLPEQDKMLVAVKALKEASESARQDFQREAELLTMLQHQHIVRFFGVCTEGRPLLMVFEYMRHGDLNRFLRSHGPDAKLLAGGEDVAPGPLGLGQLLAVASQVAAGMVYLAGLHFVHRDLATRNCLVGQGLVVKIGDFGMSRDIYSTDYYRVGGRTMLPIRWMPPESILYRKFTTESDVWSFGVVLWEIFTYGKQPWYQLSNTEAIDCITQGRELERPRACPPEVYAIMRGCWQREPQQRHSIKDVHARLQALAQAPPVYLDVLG

SMILES: COCC[C@@H]1C[C@@H](NC(=O)Nc2c(C)c(-c3cnc4c(cnn4C)c3)nn2-c2ccccc2)[C@H](c2ccnc(F)c2)O1 [Compound I-236]
- IC50 [1]: 1.4 nM

SMILES: COCC[C@@H]1C[C@@H](NC(=O)Nc2c(C)c(-c3cnc4c(c3)CC(=O)N4C)nn2-c2ccccc2)[C@H](c2ccnc(F)c2)O1 [Compound I-329]
- IC50 [1]: 1.7 nM

SMILES: CNC(=O)c1cc(-c2nn(-c3ccccc3)c(NC(=O)N[C@@H]3CN(CCOC)O[C@H]3c3cnc(F)c(F)c3)c2C)cn(C)c1=O (racemic) [Compound I-75]
- IC50 [2]: < 100 nM

SMILES: COCCN1C[C@@H](NC(=O)Nc2c(C)c(-c3cnc(C(N)=O)c(C)c3)nn2-c2ccccc2)[C@H](c2ccnc(F)c2)O1 (racemic) [Compound I-165]
- IC50 [1]: 5.3 nM

SMILES: CNC(=O)c1ncc(-c2nn(-c3ccccc3)c(NC(=O)N[C@@H]3CN(CCOC)O[C@H]3c3ccnc(F)c3)c2C)cc1C [Compound I-325]
- IC50 [1]: 2.5 nM

SMILES: COCCN1C[C@@H](NC(=O)Nc2c(C)c(-c3cnc4cccnc4c3)nn2-c2ccccc2)[C@H](c2ccc(F)c(F)c2)O1 (racemic) [Compound I-152]
- IC50 [2]: < 100 nM

SMILES: COCCN1C[C@@H](NC(=O)Nc2c(C)c(-c3cnc(C)nc3)nn2-c2ccccc2)[C@H](c2cnc(Cl)s2)O1 (racemic) [Compound I-154]
- IC50 [2]: < 100 nM

SMILES: COCCN1C[C@@H](NC(=O)Nc2c(C)c(-c3cnc(N4CCN(C)CC4)nc3)nn2-c2ccccc2)[C@H](c2cc(F)nc(F)c2)O1 (racemic) [Compound I-380]
- IC50 [3]: < 100 nM

SMILES: COCCN1C[C@H](NC(=O)Nc2c(C)c(-c3cnc(C)nc3)nn2-c2ccccc2)[C@@H](c2cc(F)nc(F)c2)O1 [Compound I-362]
- IC50 [3]: > 1000 nM

SMILES: COCC[C@H]1C[C@H](NC(=O)Nc2c(C)c(-c3cnn(C)c3)nn2-c2ccccc2)[C@@H](c2ccc(F)c(F)c2)O1 [Compound I-24]
- IC50 (Table 152, human TrkA inhibition, read-out: IC50_nM): > 1000 nM

SMILES: CCN1C[C@@H](NC(=O)Nc2c(C)c(OCCCC(=O)NCCN(C)C)nn2-c2ccccc2)[C@H](c2ccc(F)c(F)c2)O1 (racemic) [Compound I-667]
- IC50 [4]: < 100 nM

SMILES: COCCN1C[C@@H](NC(=O)Nc2c(C)c(-c3cnc(OCCN(C)C)nc3)nn2-c2ccccc2)[C@H](c2ccnc(F)c2)O1 (racemic) [Compound I-409]
- IC50 [3]: < 100 nM

SMILES: COCCN1C[C@@H](NC(=O)Nc2c(C)c(-c3cnc4c(c3)[nH]c(=O)n4C)nn2-c2ccccc2)[C@H](c2cnc(F)c(F)c2)O1 [Compound I-258]
- IC50 [1]: 0.48 nM

SMILES: COCCN1C[C@@H](NC(=O)Nc2c(C)c(C3=CCN(C(=O)OC(C)(C)C)CC3)nn2-c2ccccc2)[C@H](c2cnc(F)c(F)c2)O1 (racemic) [Compound I-46]
- IC50 [2]: < 100 nM

SMILES: COCCN1C[C@@H](NC(=O)Nc2c(C)c(C3=CCN(C(=O)CO)CC3)nn2-c2ccccc2)[C@H](c2ccc(F)c(F)c2)O1 (racemic) [Compound I-53]
- IC50 [2]: < 100 nM

SMILES: CNc1ncc(-c2nn(-c3ccccc3)c(NC(=O)N[C@@H]3C[C@@H](CCOC)O[C@H]3c3ccnc(F)c3)c2C)cn1 [Compound I-292]
- IC50 (Table 154, human TrkA inhibition, read-out: IC50): < 100 nM

SMILES: COCCN1C[C@@H](NC(=O)Nc2c(C)c(-c3cccnc3)nn2-c2ccccc2)[C@H](c2ccc(F)c(F)c2)O1 [Compound I-449]
- IC50 [3]: < 100 nM

SMILES: COc1ncc(-c2nn(-c3ccccc3)c(NC(=O)N[C@@H]3CN(C)O[C@H]3c3ccc(F)c(F)c3)c2C)cn1 (racemic) [Compound I-468]
- IC50 [3]: < 100 nM

SMILES: COCCN1C[C@@H](NC(=O)Nc2c(C)c(-c3cnc4c(cnn4C)c3)nn2-c2ccc(F)c(F)c2)[C@H](c2ccc(F)c(F)c2)O1 (racemic) [Compound I-175]
- IC50 [2]: < 100 nM

SMILES: CCN1C[C@@H](NC(=O)Nc2c(C)c(OCCCC(=O)NC)nn2-c2ccccc2)[C@H](c2ccc(F)c(F)c2)O1 (racemic) [Compound I-659]
- IC50 [4]: < 100 nM

SMILES: COCCN1C[C@@H](NC(=O)Nc2c(C)c(-c3cnc4c(c3)ncn4C)nn2-c2ccccc2)[C@H](c2cnc(F)c(F)c2)O1 (racemic) [Compound I-69]
- IC50 [2]: < 100 nM

SMILES: COCCN1C[C@@H](NC(=O)Nc2c(C)c(-c3cnc(N4C[C@@H]5C[C@H]4CO5)nc3)nn2-c2ccccc2)[C@H](c2ccnc(F)c2)O1 [Compound I-591]
- IC50 [4]: < 100 nM
